# Reference: US4459290A, “C-23-Modified derivatives of OMT, pharmaceutical compositions and method of use” (priority 1982, dated 1984)
# Like-named read-outs stand apart in the source and are kept apart here.
# Key:
# Staphylococcus aureus = experiment: MIC, broth-dilution microtiter test (Table VII); format: cell-based; conditions: Staphylococcus aureus
# Method: (§1) Especially noteworthy is the improved activity against gram-negative bacteria for several derivatives when compared to the activity of OMT. […] The MIC's in Tables V and VI were determined by standard agar-dilution assays. The MIC's in Table VII were obtained using a conventional broth-dilution microtiter test.
# [1] = system: Pasteurella multocida 17E; experiment: MIC, broth-dilution microtiter test (Table VII); format: cell-based; conditions: Pasteurella multocida, 17E
# Method: as §1
# Mycoplasma synoviae = experiment: MIC, broth-dilution microtiter test (Table VII); format: cell-based; conditions: Mycoplasmopsis synoviae
# Method: as §1
# [2] = system: Pasteurella hemolytica 23C; experiment: MIC, broth-dilution microtiter test (Table VII); format: cell-based; conditions: Pasteurella, P. hemolytica 23C, read-out: MIC
# Method: as §1
# Mycoplasma hyorhinis = experiment: MIC, broth-dilution microtiter test (Table VII); format: cell-based; conditions: M. hyorhinis; broth-dilution microtiter; read-out: MIC
# Method: as §1
# [3] = system: Pasteurella multocida 68C; experiment: MIC, broth-dilution microtiter test (Table VII); format: cell-based; conditions: Pasteurella multocida, 68C
# Method: as §1
# [4] = system: Pasteurella multocida 40G; experiment: MIC, broth-dilution microtiter test (Table VII); format: cell-based; conditions: Pasteurella multocida, 40G
# Method: as §1
# Mycoplasma gallisepticum = experiment: MIC, broth-dilution microtiter test (Table VII); format: cell-based; conditions: Mycoplasmoides gallisepticum
# Method: as §1
# [5] = system: Pasteurella multocida 60A; experiment: MIC, broth-dilution microtiter test (Table VII); format: cell-based; conditions: Pasteurella multocida, 60A
# Method: as §1
# [6] = system: Pasteurella multocida 22A; experiment: MIC, broth-dilution microtiter test (Table VII); format: cell-based; conditions: Pasteurella multocida, 22A
# Method: as §1
# [7] = system: Pasteurella hemolytica 41D; experiment: MIC, broth-dilution microtiter test (Table VII); format: cell-based; conditions: Pasteurella, P. hemolytica 41D, read-out: MIC
# Method: as §1
# [8] = system: Pasteurella hemolytica 22C; experiment: MIC, broth-dilution microtiter test (Table VII); format: cell-based; conditions: Pasteurella, P. hemolytica 22C, read-out: MIC
# Method: as §1
# Streptococcus sp. 80 = experiment: MIC, broth-dilution microtiter test (Table VII); format: cell-based; conditions: Streptococcus, SP.80
# Method: as §1
# [9] = system: Streptococcus pyogenes C203; experiment: ED50 in mice experimentally infected with S. pyogenes C203 (Table VIII); format: in vivo
# Method: The C-23 modified derivatives of OMT of this invention have shown in vivo antimicrobial activity against experimental infections. When two doses of test compound were administered to mice experimentally infected with a gram-positive bacterium, S. pyogenes C203, the activity observed was measured as an ED50 value [effective dose in mg/kg to protect 50% of the test animals: see Warren Wick, et al., J. Bacteriol. 81, 233-235 (1961)].
# Escherichia coli EC14 = experiment: MIC, standard agar-dilution assay (Table V); format: cell-based; conditions: Escherichia coli; E. coli EC14; agar dilution; read-out: MIC
# Method: as §1
# [10] = system: Staphylococcus aureus X400; experiment: MIC, standard agar-dilution assay (Table V); format: cell-based; conditions: Staphylococcus aureus, X400
# Method: as §1
# Streptococcus Group 9960 = experiment: MIC, standard agar-dilution assay (Table V); format: cell-based; conditions: GROUP9960
# Method: as §1
# Shigella sonnei N9 = experiment: MIC, standard agar-dilution assay (Table V); format: cell-based
# Method: as §1
# Escherichia coli N10 = experiment: MIC, standard agar-dilution assay (Table V); format: cell-based; conditions: Escherichia coli; E. coli N10; agar dilution; read-out: MIC
# Method: as §1
# [11] = system: Staphylococcus epidermidis EPI2; experiment: MIC, standard agar-dilution assay (Table V); format: cell-based; conditions: Staphylococcus epidermidis, EPI2
# Method: as §1
# [12] = system: Staphylococcus aureus V41; experiment: MIC, standard agar-dilution assay (Table V); format: cell-based; conditions: Staphylococcus aureus, V41
# Method: as §1
# [13] = system: Klebsiella pneumoniae KAE; experiment: MIC, standard agar-dilution assay (Table V); format: cell-based; conditions: Klebsiella pneumoniae; K. pneumoniae KAE; agar dilution; read-out: MIC
# Method: as §1
# [14] = system: Staphylococcus epidermidis EPI1; experiment: MIC, standard agar-dilution assay (Table V); format: cell-based; conditions: Staphylococcus epidermidis, EPI1
# Method: as §1
# [15] = system: Staphylococcus aureus X1.1; experiment: MIC, standard agar-dilution assay (Table V); format: cell-based; conditions: Staphylococcus aureus, X1.1
# Method: as §1
# [16] = system: Klebsiella pneumoniae X26; experiment: MIC, standard agar-dilution assay (Table V); format: cell-based; conditions: Klebsiella pneumoniae; K. pneumoniae X26; agar dilution; read-out: MIC
# Method: as §1
# [17] = system: Streptococcus Group D X66; experiment: MIC, standard agar-dilution assay (Table V); format: cell-based
# Method: as §1
# [18] = system: Staphylococcus aureus S13E; experiment: MIC, standard agar-dilution assay (Table V); format: cell-based; conditions: Staphylococcus aureus, S13E
# Method: as §1
# [19] = system: Streptococcus pyogenes C203; experiment: MIC, standard agar-dilution assay (Table V); format: cell-based; conditions: Streptococcus pyogenes, C203
# Method: (§2) The MIC's in Tables V and VI were determined by standard agar-dilution assays. The MIC's in Table VII were obtained using a conventional broth-dilution microtiter test.
# [20] = system: Haemophilus influenzae Holt; experiment: MIC, standard agar-dilution assay (Table V); format: cell-based; conditions: Haemophilus influenzae
# Method: as §2
# [21] = system: Haemophilus influenzae R252; experiment: MIC, standard agar-dilution assay (Table V); format: cell-based; conditions: Haemophilus influenzae, R252
# Method: as §2
# Escherichia coli TEM = experiment: MIC, standard agar-dilution assay (Table V); format: cell-based; conditions: Escherichia coli; E. coli TEM; agar dilution; read-out: MIC
# Method: as §2
# [22] = system: Streptococcus pneumoniae Park I; experiment: microbe, parasite or virus in culture; format: cell-based; conditions: Streptococcus pneumoniae
# Method: as §1
# [23] = system: Salmonella heidelberg X514; experiment: MIC, standard agar-dilution assay (Table VI); format: cell-based; conditions: Salmonella enterica; S. heidelberg X514; agar dilution; read-out: MIC
# Method: as §1
# Serratia marcescens X99 = experiment: MIC, standard agar-dilution assay (Table VI); format: cell-based; conditions: S. marcescens X99, agar dilution, read-out: MIC
# Method: as §1
# Enterobacter cloacae EB5 = experiment: MIC, standard agar-dilution assay (Table VI); format: cell-based; conditions: E. cloacae EB5, agar dilution, read-out: MIC
# Method: as §1
# Serratia marcescens SE3 = experiment: MIC, standard agar-dilution assay (Table VI); format: cell-based; conditions: S. marcescens SE3, agar dilution, read-out: MIC
# Method: as §1
# Proteus inconstans PR33 = experiment: MIC, standard agar-dilution assay (Table VI); format: cell-based; conditions: Providencia alcalifaciens; P. inconstans PR33; agar dilution; read-out: MIC
# Method: as §1
# [24] = system: Pseudomonas aeruginosa X528; experiment: MIC, standard agar-dilution assay (Table VI); format: cell-based; conditions: X528
# Method: as §1
# [25] = system: Pseudomonas aeruginosa Ps18; experiment: MIC, standard agar-dilution assay (Table VI); format: cell-based; conditions: P. aeruginosa Ps18, agar dilution, read-out: MIC
# Method: as §1
# Proteus rettgeri PR7 = experiment: MIC, standard agar-dilution assay (Table VI); format: cell-based; conditions: Providencia rettgeri; P. rettgeri PR7; agar dilution; read-out: MIC
# Method: as §1
# [26] = system: Enterobacter aerogenes C32; experiment: MIC, standard agar-dilution assay (Table VI); format: cell-based; conditions: Klebsiella aerogenes; E. aerogenes C32; agar dilution; read-out: MIC
# Method: as §1
# Proteus rettgeri C24 = experiment: MIC, standard agar-dilution assay (Table VI); format: cell-based; conditions: Providencia rettgeri, P. rettgeri C24
# Method: as §1
# Salmonella typhi 1335 = experiment: MIC, standard agar-dilution assay (Table VI); format: cell-based; conditions: Salmonella enterica
# Method: as §1
# [27] = system: Pseudomonas aeruginosa X239; experiment: MIC, standard agar-dilution assay (Table VI); format: cell-based; conditions: P. aeruginosa X239, agar dilution, read-out: MIC
# Method: as §1
# Proteus morganii PR15 = experiment: MIC, standard agar-dilution assay (Table VI); format: cell-based; conditions: Morganella morganii; P. morganii PR15; agar dilution; read-out: MIC
# Method: as §1
# [28] = system: Citrobacter freundii CF17; experiment: MIC, standard agar-dilution assay (Table VI); format: cell-based; conditions: C. freundii CF17, agar dilution, read-out: MIC
# Method: as §1
# [29] = system: Enterobacter aerogenes EB17; experiment: MIC, standard agar-dilution assay (Table VI); format: cell-based; conditions: Klebsiella aerogenes; E. aerogenes EB17; agar dilution; read-out: MIC
# Method: as §1
# [30] = system: Klebsiella pneumoniae X68; experiment: MIC, standard agar-dilution assay (Table VI); format: cell-based; conditions: K. pneumoniae X68, agar dilution, read-out: MIC
# Method: as §1
compound,measurement,setting,value
CCC1OC(=O)CC(O)C(C)C(OC2OC(C)C(O)C(N(C)C)C2O)C(CC=O)CC(C)C(=O)C=CC(C)(OC)C2CC12 (stereo not shown) [Compound 17],MIC,Staphylococcus aureus,3.12 µg/mL
same,MIC,[1],6.25 µg/mL
same,MIC,Mycoplasma synoviae,1.56 µg/mL
same,MIC,[2],25 µg/mL
same,MIC,Mycoplasma hyorhinis,25 µg/mL
same,MIC,[3],6.25 µg/mL
same,MIC,[4],6.25 µg/mL
same,MIC,Mycoplasma gallisepticum,0.78 µg/mL
same,MIC,[5],12.5 µg/mL
same,MIC,[6],6.25 µg/mL
same,MIC,[7],25 µg/mL
same,MIC,[8],25 µg/mL
same,MIC,Streptococcus sp. 80,1.56 µg/mL
same,ED50,"[9]; C203, po, read-out: ED50, Oral",> 100 mg/kg
same,ED50,"[9]; C203, sc, read-out: ED50, Subcutaneous",> 25 mg/kg
same,MIC,Escherichia coli EC14,> 128 µg/mL
same,MIC,[10],2 µg/mL
same,MIC,Streptococcus Group 9960,2 µg/mL
same,MIC,Shigella sonnei N9,> 128 µg/mL
same,MIC,Escherichia coli N10,> 128 µg/mL
same,MIC,[11],2 µg/mL
same,MIC,[12],2 µg/mL
same,MIC,[13],> 128 µg/mL
same,MIC,[14],2 µg/mL
same,MIC,[15],2 µg/mL
same,MIC,[16],16 µg/mL
same,MIC,[17],2 µg/mL
same,MIC,[18],2 µg/mL
same,MIC,[19],1 µg/mL
same,MIC,[20],8 µg/mL
same,MIC,[21],8 µg/mL
same,MIC,Escherichia coli TEM,64 µg/mL
same,MIC,[22],0.25 µg/mL
same,MIC,[23],> 128 µg/mL
same,MIC,Serratia marcescens X99,> 128 µg/mL
same,MIC,Enterobacter cloacae EB5,> 128 µg/mL
same,MIC,Serratia marcescens SE3,> 128 µg/mL
same,MIC,Proteus inconstans PR33,> 128 µg/mL
same,MIC,[24],64 µg/mL
same,MIC,[25],> 128 µg/mL
same,MIC,Proteus rettgeri PR7,> 128 µg/mL
same,MIC,[26],> 128 µg/mL
same,MIC,Proteus rettgeri C24,> 128 µg/mL
same,MIC,Salmonella typhi 1335,> 128 µg/mL
same,MIC,[27],> 128 µg/mL
same,MIC,Proteus morganii PR15,> 128 µg/mL
same,MIC,[28],> 128 µg/mL
same,MIC,[29],> 128 µg/mL
same,MIC,[30],> 128 µg/mL
